The values below come from patent EP4635958A1, “PYRIMIDINE-CONTAINING POLYCYCLIC DERIVATIVE INHIBITOR, AND PREPARATION METHOD THEREFOR AND USE THEREOF” (Shanghai Hansoh Biomedical Co., Ltd., priority 2022, dated 2024).

The structures appear in SMILES notation.

For one data set, the system named is GP2D. In words: Inhibition of proliferation of KRAS G12D mutant tumor cell line GP2D (CellTiter-Glo). Conditions: Homo sapiens, GP2d, 72 h, read-out: GP2D IC50.
Another data set concerns the target T1, KRAS G12D-SOS1 (Homo sapiens, UniProt P01116, G12D).
T1 construct: purchased Cisbio 63ADK000CB17PEG
The experiment in a line: Blocking of KRAS G12D-SOS1 protein binding (Cisbio KRAS-G12D/SOS1 Binding Assay Kit, time-resolved fluorescence). Conditions: KRAS G12D-GTP and SOS1 protein, signal ratio 665nm/620nm; read-out: G12D SOS1 biochemical IC50. The source says: • 1. Experimental objective: […] Experimental reagents and instruments The centrifuge (5810R) was purchased from Eppendorf; the pipette was purchased from Eppendorf or Rainin; and the microplate reader was purchased from BioTek (United States) with a model of SynergyH1 multifunctional microplate reader. KRAS-G12D/SOS1 Binding Assay Kit was purchased from Cisbio, with a catalog number of 63ADK000CB17PEG; GTP was purchased from Sigma, with a catalog number of G8877; 384-well plate was purchased from Perkin Elmer, with a catalog number of 6007299. The Diluent buffer in the kit was used to dilute the compound into 10× compound solution of different concentrations, and 2 uL was added to each well of the 384-well plate. Tag2-KRAS G12D protein and GTP were formulated into a mixed solution of 5×KRAS G12D-GTP protein using Diluent buffer, and Tag1-SOS1 protein was formulated into a 5×SOS1 protein solution using Diluent buffer. Each solution was added to the 384-well plate separately at 4 uL per well, and incubated at room temperature for 15 min. A mixed solution of 2× anti-Tag1-Tb^3+ and anti-Tag2-XL665 formulated using detection buffer was added to the 384-well plate at 10 µL per well, and incubated at 4°C in the dark for 3 h.

Another data set concerns the target KRAS WT (Homo sapiens, UniProt P01116). In words: KRAS WT biochemical assay (Table 1, no method of its own). The note with it: read-out: KRAS WT Biochemical IC50. Type of data set: binding.
Data set [1] in a line: Pharmacokinetic determination in mice (IV and PO, plasma, LCMS/MS). Type of data set: in vivo, Balb/c mice. The note with it: male, Balb/c, mouse, in vivo, iv, 1 mg/kg. The procedure, abridged:
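Male Balb/c mice, fasted overnight (n=3 per route): PO 30 mg/kg in 10% Captisol/50 mM citrate pH 5.0, or IV 1 mg/kg in 5% DMSO/10% Solutol HS15/85% PBS. Orbital blood sampled predose to 24 h; EDTA plasma analysed by LC-MS/MS.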

Another data set has as its system AsPC-1. In words: Inhibition of proliferation of KRAS G12D mutant tumor cell line AsPC-1 (CellTiter-Glo). Type of data set: cell-based. Conditions: Homo sapiens, ASPC1, about 72 h. The method in brief:
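KRAS G12D-mutant AsPC-1 cells plated overnight at 37 °C/5% CO2, then exposed to serial compound dilutions (DMSO/medium, vehicle control) for about 72 h. Viability read by CellTiter-Glo luminescence; inhibition rate vs concentration fitted by nonlinear regression for IC50.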

T1 sequence (P01116 1-188 isoform P01116-2 G12D): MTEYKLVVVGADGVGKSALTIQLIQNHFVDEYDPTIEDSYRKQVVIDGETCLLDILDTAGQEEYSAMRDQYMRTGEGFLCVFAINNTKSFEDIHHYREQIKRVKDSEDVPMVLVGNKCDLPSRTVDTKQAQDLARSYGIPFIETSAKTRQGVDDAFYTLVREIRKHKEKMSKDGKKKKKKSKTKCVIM
Chain of KRAS WT (P01116 1-188 isoform P01116-2): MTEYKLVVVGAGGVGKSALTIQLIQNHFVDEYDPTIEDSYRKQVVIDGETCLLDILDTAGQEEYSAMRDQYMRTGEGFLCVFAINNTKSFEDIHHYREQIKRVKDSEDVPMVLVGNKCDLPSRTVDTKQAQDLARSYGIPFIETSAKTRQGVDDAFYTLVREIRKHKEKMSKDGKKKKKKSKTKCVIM
Method for GP2D: Experimental method: When SNU-1, HPAF-II, Panc0403, AsPC-1 or GP2D cells were cultured to the appropriate confluence, and the SNU-1, HPAF-II, Panc0403, AsPC-1 or GP2D cells were collected. The cells were adjusted to the appropriate cell density using complete culture medium, the cell suspension was plated onto a 96-well plate at 90 µL per well, and the plate was placed in the incubator at 37°C and 5% CO2 for adherent culture overnight. Solutions of the compound with different concentrations were formulated using DMSO and culture medium. A vehicle control was set up. […] Then, CellTiter-Glo solution was added, and the obtained mixture was shaken and mixed evenly, incubated in the dark for 10 min, and read with a BioTek Synergy H1 microplate reader. […] Experimental data processing method: The luminescence signal value was used to calculate the inhibition rate. Graphpad Prism software was used to fit the concentration and inhibition rate to a nonlinear regression curve, so as to obtain the IC50 value.

Regarding `C#Cc1c(F)ccc2cc(O)cc(-c3nc4c5c(nc(OCC6(CN7CCC(=C(F)F)C7)CC6)nc5c3F)N3CC5CCC(N5)C3CO4)c12` (centres unmarked) [Example 14-1], the IC50 in the data set on GP2D came to 1.5 nM; on KRAS G12D-SOS1, 4.3 nM; on KRAS WT, 153 nM.

For the compound `C#Cc1c(F)ccc2cc(O)cc(-c3nc4c5c(nc(OCC6(CN7CCC(=CF)C7)CC6)nc5c3F)N3CC5CCC(N5)C3CO4)c12` (centres unmarked) [Example 15-1], the half-inhibitory concentration (IC50) with GP2D was 0.76 nM; on KRAS G12D-SOS1, 3 nM; on KRAS WT, 26 nM.

Turning to `C#Cc1c(F)ccc2cc(O)cc(-c3nc4c5c(nc(OCC6(CN7CC8CC(=C(F)F)CC8C7)CC6)nc5c3F)N3CC5CCC(N5)C3CO4)c12` (centres unmarked) [Example 17-1], the concentration for half-maximal inhibition (IC50) in the data set with GP2D was 1.2 nM; at KRAS G12D-SOS1, 2.6 nM; on KRAS WT it was 58 nM.

In the case of `C#Cc1c(F)ccc2cc(O)cc(-c3nc4c5c(nc(OCC6(CN7CCC(=NOC)CC7)CC6)nc5c3F)N3CC5CCC(N5)C3CO4)c12` [Example 21-1, 1-((1-((((5aS,6S,9R)-2-(8-ethynyl-7-fluoro-3-hydroxylnaphthalen-1-yl)-1-fluoro-5a,6,7,8,9,10-hexahydro-5H-4-oxa-3,10a,11,13,14-pentaaza-6,9-methylnaphtho[1,8-ab]hept-12-yl)oxy)methyl)cyclopropyl)methyl)piperidine-4-one-oxo-methyloxime], in data set [1], the AUC stood at 253 ng·h/mL, the C0 is 939 ng/mL, the clearance turned out to be 14.1 mL/min/kg and the half-life is 9.1 h. Also, the IC50 with GP2D amounted to 0.75 nM. For the same compound, the 50% inhibitory concentration (IC50) in the data set with AsPC-1 is 3.1 nM. Besides, the half-maximal inhibitory concentration (IC50) at KRAS G12D-SOS1 came to 1.9 nM. In addition, the IC50 at KRAS WT is 60 nM.
